Results as given in US20210046071A1, “TETRACYCLIC COMPOUNDS AND THEIR SALTS, COMPOSITIONS, AND METHODS FOR THEIR USE” (Senhwa Biosciences, Inc., priority 2019, published 2021).
Where two headings read alike, the source gives them in different places.

Test: Pharmacokinetic studies in human, Compound I in plasma by LC/MS/MS
Format: in vivo
Settings: human, plasma, iv; for AUC(0-inf): read-out: AUC∞; for half-life: read-out: T1/2 (converted)
Protocol: Pharmacokinetic studies and dose escalation studies were conducted in adult patients with metastatic, recurrent, locally, advanced, or unresectable solid malignancy (patients with histologically and/or cytologically confirmed solid malignancy), who received prior anti-cancer treatment(s) until disease progression, at 10 different dose levels of Compound I. Groups 1-7 were administered intravenously on days 1 and 8 of a 4-week cycle at 50, 100, 150, 200, 250, 325, and 475 mg/m^2 (lyophilized formulation), respectively. Groups 8-10 were administered intravenously on days 1,8, and 15 of a 4-week cycle at 325, 475, and 650 mg/m^2 (lyophilized formulation), respectively. Each patient received each dose over 1 hour by IV infusion on days described above.
They lyophilized formulation was reconstituted with 5% glucose in sterile water, or similar biologically acceptable fluid, for IV infusion.
For patients in Groups 1-7, blood samples were typically collected at Day 1 at pre-infusion (t=−1 h), during infusion at about 30 minutes (t=−0.5 h), immediately post infusion (t=0 h), 30 min post-infusion, 1 h post-infusion, 2 h post-infusion, 4 h post-infusion, and 6 h post-infusion, as well as at about 24 h post-infusion, 48 h post-infusion, and 72 h post-infusion. On Day 8, blood samples were typically collected at pre-infusion (t=−1 h), during infusion at about 30 minutes (t=−0.5 h), immediately post infusion (t=0 h), 30 min post-infusion, 1 h post-infusion, 2 h post-infusion, 4 h post-infusion, and 6 h post-infusion, as well as at about 24 h post-infusion, and 168 h post-infusion (Day 15).
For patients in Groups 8-10, blood samples were typically collected at Day 1 at pre-infusion (t=−1 h), during infusion at about 30 minutes (t=−0.5 h), immediately post infusion (t=0 h), 30 min post-infusion, 1 h post-infusion, 2 h post-infusion, 4 h post-infusion, and 6 h post-infusion, as well as at about 24 h post-infusion, 48 h post-infusion, and 72 h post-infusion. On Day 8, blood samples were typically collected at pre-infusion (t=−1 h). On Day 15, blood samples were typically collected at pre-infusion (t=−1 h), during infusion at about 30 minutes (t=−0.5 h), immediately post infusion (t=0 h), 30 min post-infusion, 1 h post-infusion, 2 h post-infusion, 4 h post-infusion, and 6 h post-infusion, as well as at about 24 h post-infusion, and 168 h post-infusion (Day 22).
Levels of Compound I in patient's plasma were analyzed by liquid chromatography tandem mass spectrometry (LC/MS/MS) assay. Experimental procedures of the validated methods are summarized below. The pharmacokinetic parameters after first dose and second dose for Groups 1-7 and after first dose and third dose for Groups 8-10 are shown in Tables 2A-2J. In Tables 2A-2J: SD=standard deviation; Cmax=maximum observed concentration; D=dose; Tmax=time to maximum observed concentration; T1/2=elimination half-life; Vd=volume of distribution; CL=drug clearance; and AUC∞=area under the concentration-time curve from time zero to infinity (total exposure).
The concentrations of Compound I in human plasma samples collected from subjects of as discussed above. Compound I concentrations in plasma samples were measured based on 9 levels of calibration standards from 5.00 to 5000 ng/mL, and 3 levels of QC at 15.0 ng/mL (low), 2500 ng/mL (mid), and 4000 ng/mL (high).
Two reference standard master stock solutions of Compound I were prepared by dissolving the Compound 1 reference standard with 50:50:0.1 ACN:diH2O:FA (v/v/v) and sonicating for 7 minutes (diH2O=deionized water). The resulting solutions were further diluted with 50:50:0.1 ACN:diH2O:FA (v/v/v) into a series of working stock solutions (WSS) for spiking of Compound I calibration standards and QC samples. The master stock solutions were prepared fresh on the day of assay, or stored at nominal 2° C. to 8° C. for later use. Master stock solutions were used within the stability timeframe. […]

[1] = 150 mg/m2, Group 3, 150 mg/m^2 IV, Day 8, mean, n = 4
[2] = 200 mg/m2, Group 4, 200 mg/m^2 IV, Day 1, mean, n = 4
[3] = 200 mg/m2, Group 4, 200 mg/m^2 IV, Day 8, mean, n = 4
[4] = 250 mg/m2, Group 5, 250 mg/m^2 IV, Day 1, mean, n = 3
[5] = 250 mg/m2, Group 5, 250 mg/m^2 IV, Day 8, mean, n = 3
[6] = 325 mg/m2, Group 6, 325 mg/m^2 IV, Day 1, mean, n = 3
[7] = 325 mg/m2, Group 6, 325 mg/m^2 IV, Day 8, mean, n = 3
[8] = 325 mg/m2, Group 8, 325 mg/m^2 IV, Day 1, mean, n = 3
[9] = 325 mg/m2, Group 8, 325 mg/m^2 IV, Day 1, mean, n = 4
[10] = 325 mg/m2, Group 8, 325 mg/m^2 IV, Day 15, mean, n = 4
[11] = 475 mg/m2, Group 7, 475 mg/m^2 IV, Day 1, mean, n = 3
[12] = 475 mg/m2, Group 7, 475 mg/m^2 IV, Day 8, mean, n = 3
[13] = 475 mg/m2, Group 9, 475 mg/m^2 IV, Day 1, mean, n = 5
[14] = 475 mg/m2, Group 9, 475 mg/m^2 IV, Day 15, mean, n = 4
[15] = 475 mg/m2, Group 9, 475 mg/m^2 IV, Day 15, mean, n = 5
[16] = 650 mg/m2, Group 10, 650 mg/m^2 IV, Day 1, mean, n = 5
[17] = 650 mg/m2, Group 10, 650 mg/m^2 IV, Day 15, mean, n = 5

## Cc1cnc(CNC(=O)c2c(=O)c3ccc(N4CCCN(C)CC4)nc3n3c2sc2ccccc23)cn1 [Compound I, 2-(4-Methyl-[1,4]diazepan-1-yl)-5-oxo-5H-7-thia-1,11b-diaza-benzo[c]fluorene-6-carboxylic acid (5-methyl-pyrazin-2-ylmethyl)-amide]
[1]
  Tmax: 0.646 h
  Vd: 939 L
  clearance: 203 mL/min
  AUC(0-inf): 21800 ng·h/mL
  half-life: 59.1 h
[2]
  Cmax: 8950 ng/mL
  Tmax: 0.854 h
  Vd: 1700 L
  clearance: 505 mL/min
  AUC(0-inf): 15100 ng·h/mL
  half-life: 41.9 h
[3]
  Cmax: 1180 ng/mL
  Tmax: 1.3 h
  Vd: 2050 L
  clearance: 470 mL/min
  AUC(0-inf): 16200 ng·h/mL
  half-life: 53.5 h
[4]
  Cmax: 1410 ng/mL
  Tmax: 1.19 h
  Vd: 1450 L
  clearance: 348 mL/min
  AUC(0-inf): 20900 ng·h/mL
  half-life: 47.9 h
[5]
  Cmax: 771 ng/mL
  Tmax: 1.2 h
  Vd: 2160 L
  clearance: 258 mL/min
  AUC(0-inf): 28100 ng·h/mL
  half-life: 96.9 h
[6]
  Cmax: 1070 ng/mL
  Tmax: 1.02 h
  Vd: 1930 L
  clearance: 390 mL/min
  AUC(0-inf): 23500 ng·h/mL
  half-life: 66.9 h
[7]
  Cmax: 1040 ng/mL
  Tmax: 0.672 h
  Vd: 2220 L
  clearance: 307 mL/min
  AUC(0-inf): 29000 ng·h/mL
  half-life: 86.5 h
[8]
  Vd: 2320 L
  clearance: 322 mL/min
  AUC(0-inf): 29100 ng·h/mL
  half-life: 83.4 h
[9]
  Cmax: 1140 ng/mL
  Tmax: 0.767 h
[10]
  Cmax: 21100 ng/mL
  Tmax: 0.783 h
[11]
  Cmax: 1940 ng/mL
  Tmax: 0.861 h
  Vd: 2590 L
  clearance: 418 mL/min
  AUC(0-inf): 36200 ng·h/mL
  half-life: 81.8 h
[12]
  Cmax: 1710 ng/mL
  Tmax: 0.678 h
  Vd: 2430 L
  clearance: 482 mL/min
  AUC(0-inf): 35400 ng·h/mL
  half-life: 73.8 h
[13]
  Cmax: 1750 ng/mL
  Tmax: 1.18 h
  Vd: 2320 L
  clearance: 460 mL/min
  AUC(0-inf): 36300 ng·h/mL
  half-life: 61.5 h
[14]
  Vd: 2570 L
  clearance: 532 mL/min
  AUC(0-inf): 32500 ng·h/mL
  half-life: 59 h
[15]
  Cmax: 2870 ng/mL
  Tmax: 0.737 h
[16]
  Cmax: 3080 ng/mL
  Tmax: 0.81 h
  Vd: 3700 L
  AUC(0-inf): 57500 ng·h/mL
  half-life: 122 h
[17]
  Cmax: 4170 ng/mL
  Tmax: 1.05 h
  Vd: 2620 L
  AUC(0-inf): 62200 ng·h/mL
  half-life: 93.6 h
